Laboratory results published in publication PMC3445516 (PLoS ONE, 2012).

Key:
Assay in all cases: Ambit kinase profiling, competition binding
ABL1(F317I) = molecular target: T1, ABL1(F317I) (Homo sapiens, UniProt P00519, F317I); conditions: compound concentration 10 uM, read-out: Percent Competition
T1 construct: purchased Ambit Biosciences (KINOMEscan)
Source text: (§1) Supplement pone.0044653.s004.xls, sheet "Compound 122" | column: Percent Competition

ABL1(H396P) = molecular target: T2, ABL1(H396P) (Homo sapiens, UniProt P00519, H396P); conditions: compound concentration 10 uM, read-out: Percent Competition
T2 construct: purchased Ambit Biosciences (KINOMEscan)
Source text: as §1

AKT1 = molecular target: T3, AKT1 (Homo sapiens, UniProt P31749); conditions: compound concentration 10 uM, read-out: Percent Competition
T3 construct: purchased Ambit Biosciences (KINOMEscan)
Source text: as §1

AMPK-alpha1 = molecular target: T4, AMPK-alpha1 (Homo sapiens, UniProt Q13131); conditions: compound concentration 10 uM, read-out: Percent Competition
T4 construct: purchased Ambit Biosciences (KINOMEscan)
Source text: as §1

ARK5 = molecular target: T5, ARK5 (Homo sapiens, UniProt O60285); conditions: compound concentration 10 uM
T5 construct: purchased Ambit Biosciences (KINOMEscan)
Source text: as §1

AURKA = molecular target: T6, AURKA (Homo sapiens, UniProt O14965); conditions: compound concentration 10 uM, read-out: Percent Competition
T6 construct: purchased Ambit Biosciences (KINOMEscan)
Source text: as §1

AURKB = molecular target: T7, AURKB (Homo sapiens, UniProt Q96GD4); conditions: compound concentration 10 uM, read-out: Percent Competition
T7 construct: purchased Ambit Biosciences (KINOMEscan)
Source text: as §1

AXL = molecular target: T8, AXL (Homo sapiens, UniProt P30530); conditions: compound concentration 10 uM, read-out: Percent Competition
T8 construct: purchased Ambit Biosciences (KINOMEscan)
Source text: as §1

BIKE = molecular target: T9, BIKE (Homo sapiens, UniProt Q9NSY1); conditions: compound concentration 10 uM, read-out: Percent Competition
T9 construct: purchased Ambit Biosciences (KINOMEscan)
Source text: as §1

BLK = molecular target: T10, BLK (Homo sapiens, UniProt P51451); conditions: compound concentration 10 uM, read-out: Percent Competition
T10 construct: purchased Ambit Biosciences (KINOMEscan)
T10 sequence (P51451 whole entry): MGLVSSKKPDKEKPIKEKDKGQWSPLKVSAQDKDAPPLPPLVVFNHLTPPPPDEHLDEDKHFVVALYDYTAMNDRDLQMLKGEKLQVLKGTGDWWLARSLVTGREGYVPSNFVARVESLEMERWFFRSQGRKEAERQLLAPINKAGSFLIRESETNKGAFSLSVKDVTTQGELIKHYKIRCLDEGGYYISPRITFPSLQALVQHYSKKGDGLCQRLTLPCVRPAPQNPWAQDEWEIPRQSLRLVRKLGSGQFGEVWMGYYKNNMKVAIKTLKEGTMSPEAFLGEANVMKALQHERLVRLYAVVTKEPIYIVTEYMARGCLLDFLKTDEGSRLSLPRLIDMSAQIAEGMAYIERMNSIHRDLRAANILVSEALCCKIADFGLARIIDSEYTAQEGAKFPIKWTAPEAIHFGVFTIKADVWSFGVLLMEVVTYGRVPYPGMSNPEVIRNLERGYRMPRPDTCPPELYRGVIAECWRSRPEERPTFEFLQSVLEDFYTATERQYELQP
Source text: as §1

BMPR1A = molecular target: T11, BMPR1A (Homo sapiens, UniProt P36894); conditions: compound concentration 10 uM, read-out: Percent Competition
T11 construct: purchased Ambit Biosciences (KINOMEscan)
T11 sequence (P36894 24-532): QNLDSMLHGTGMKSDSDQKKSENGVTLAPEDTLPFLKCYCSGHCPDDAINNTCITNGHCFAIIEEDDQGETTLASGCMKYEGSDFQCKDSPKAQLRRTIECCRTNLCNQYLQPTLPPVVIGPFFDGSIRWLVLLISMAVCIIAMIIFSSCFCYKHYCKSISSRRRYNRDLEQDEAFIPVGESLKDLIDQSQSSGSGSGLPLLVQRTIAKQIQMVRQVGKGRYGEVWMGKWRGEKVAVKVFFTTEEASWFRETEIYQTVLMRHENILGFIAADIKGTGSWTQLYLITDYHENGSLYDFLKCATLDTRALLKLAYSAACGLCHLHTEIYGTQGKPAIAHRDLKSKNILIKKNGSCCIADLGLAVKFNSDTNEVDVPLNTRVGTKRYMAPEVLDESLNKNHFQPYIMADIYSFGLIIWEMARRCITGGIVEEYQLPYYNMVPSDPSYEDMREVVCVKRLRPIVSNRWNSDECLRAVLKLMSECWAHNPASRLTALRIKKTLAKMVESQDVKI
Source text: as §1

BMPR2 = molecular target: T12, BMPR2 (Homo sapiens, UniProt Q13873); conditions: compound concentration 10 uM
T12 construct: purchased Ambit Biosciences (KINOMEscan)
Source text: as §1

BRK = molecular target: T13, BRK (Homo sapiens, UniProt Q13882); conditions: compound concentration 10 uM, read-out: Percent Competition
T13 construct: purchased Ambit Biosciences (KINOMEscan)
Source text: as §1

BRSK2 = molecular target: T14, BRSK2 (Homo sapiens, UniProt Q8IWQ3); conditions: compound concentration 10 uM, read-out: Percent Competition
T14 construct: purchased Ambit Biosciences (KINOMEscan)
Source text: as §1

CAMKK1 = molecular target: T15, CAMKK1 (Homo sapiens, UniProt Q8N5S9); conditions: compound concentration 10 uM, read-out: Percent Competition
T15 construct: purchased Ambit Biosciences (KINOMEscan)
Source text: as §1

CDC2L1 = molecular target: T16, CDC2L1 (Homo sapiens, UniProt P21127); conditions: compound concentration 10 uM, read-out: Percent Competition
T16 construct: purchased Ambit Biosciences (KINOMEscan)
Source text: as §1

CDK9 = molecular target: T17, CDK9 (Homo sapiens, UniProt P50750); conditions: compound concentration 10 uM, read-out: Percent Competition
T17 construct: purchased Ambit Biosciences (KINOMEscan)
T17 sequence (P50750 whole entry): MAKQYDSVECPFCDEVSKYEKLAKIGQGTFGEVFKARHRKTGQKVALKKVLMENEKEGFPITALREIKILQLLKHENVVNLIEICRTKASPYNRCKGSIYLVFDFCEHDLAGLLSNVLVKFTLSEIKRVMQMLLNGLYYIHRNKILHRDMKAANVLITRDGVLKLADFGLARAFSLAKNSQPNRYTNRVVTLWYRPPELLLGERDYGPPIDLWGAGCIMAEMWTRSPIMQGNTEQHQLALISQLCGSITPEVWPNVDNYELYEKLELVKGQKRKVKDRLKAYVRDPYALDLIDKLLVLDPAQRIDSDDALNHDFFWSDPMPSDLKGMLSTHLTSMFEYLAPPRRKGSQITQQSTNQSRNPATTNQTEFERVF
Source text: as §1

CDKL2 = molecular target: T18, CDKL2 (Homo sapiens, UniProt Q92772); conditions: compound concentration 10 uM, read-out: Percent Competition
T18 construct: purchased Ambit Biosciences (KINOMEscan)
Source text: as §1

CLK3 = molecular target: T19, CLK3 (Homo sapiens, UniProt P49761); conditions: compound concentration 10 uM, read-out: Percent Competition
T19 construct: purchased Ambit Biosciences (KINOMEscan)
T19 sequence (P49761 whole entry): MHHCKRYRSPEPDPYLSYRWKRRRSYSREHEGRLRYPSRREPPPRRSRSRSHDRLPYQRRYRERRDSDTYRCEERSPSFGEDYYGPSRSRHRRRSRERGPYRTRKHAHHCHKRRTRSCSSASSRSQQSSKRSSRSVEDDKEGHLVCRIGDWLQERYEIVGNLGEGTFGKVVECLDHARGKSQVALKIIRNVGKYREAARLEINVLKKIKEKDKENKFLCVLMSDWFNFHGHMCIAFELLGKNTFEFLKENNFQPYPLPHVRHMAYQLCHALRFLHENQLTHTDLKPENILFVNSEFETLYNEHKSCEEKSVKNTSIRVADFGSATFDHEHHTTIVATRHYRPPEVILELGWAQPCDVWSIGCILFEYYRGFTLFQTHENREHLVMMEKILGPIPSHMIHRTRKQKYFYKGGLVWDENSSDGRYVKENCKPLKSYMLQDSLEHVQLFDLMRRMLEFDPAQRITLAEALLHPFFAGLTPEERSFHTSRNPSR
Source text: as §1

CSF1R = molecular target: T20, CSF1R (Homo sapiens, UniProt P07333); conditions: compound concentration 10 uM, read-out: Percent Competition
T20 construct: purchased Ambit Biosciences (KINOMEscan)
Source text: as §1

DCAMKL1 = molecular target: T21, DCAMKL1 (Homo sapiens, UniProt O15075); conditions: compound concentration 10 uM
T21 construct: purchased Ambit Biosciences (KINOMEscan)
T21 sequence (O15075 whole entry): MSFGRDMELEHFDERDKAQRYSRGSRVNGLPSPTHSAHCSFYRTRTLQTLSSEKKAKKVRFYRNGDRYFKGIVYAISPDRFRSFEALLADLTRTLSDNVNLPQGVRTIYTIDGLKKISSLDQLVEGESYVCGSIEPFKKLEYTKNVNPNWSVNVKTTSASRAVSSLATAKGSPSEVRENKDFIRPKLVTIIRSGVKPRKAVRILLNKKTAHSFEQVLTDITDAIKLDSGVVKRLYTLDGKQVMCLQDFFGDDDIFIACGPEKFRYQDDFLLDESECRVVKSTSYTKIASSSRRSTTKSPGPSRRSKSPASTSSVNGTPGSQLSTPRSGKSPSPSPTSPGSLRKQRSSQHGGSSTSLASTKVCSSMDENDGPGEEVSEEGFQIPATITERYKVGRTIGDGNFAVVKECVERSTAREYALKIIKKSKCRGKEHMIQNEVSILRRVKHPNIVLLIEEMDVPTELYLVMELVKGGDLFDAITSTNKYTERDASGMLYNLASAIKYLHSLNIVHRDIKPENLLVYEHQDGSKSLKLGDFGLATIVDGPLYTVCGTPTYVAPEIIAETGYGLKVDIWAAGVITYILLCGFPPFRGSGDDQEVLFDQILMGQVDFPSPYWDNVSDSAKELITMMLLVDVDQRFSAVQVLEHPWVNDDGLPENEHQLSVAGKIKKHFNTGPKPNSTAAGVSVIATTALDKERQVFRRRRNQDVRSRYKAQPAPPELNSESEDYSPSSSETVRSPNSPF
Source text: as §1

FAK = molecular target: T22, FAK (Homo sapiens, UniProt Q05397); conditions: compound concentration 10 uM, read-out: Percent Competition
T22 construct: purchased Ambit Biosciences (KINOMEscan)
Source text: as §1

FGFR3 = molecular target: T23, FGFR3 (Homo sapiens, UniProt P22607); conditions: compound concentration 10 uM, read-out: Percent Competition
T23 construct: purchased Ambit Biosciences (KINOMEscan)
Source text: as §1

FGFR3(G697C) = molecular target: T24, FGFR3(G697C) (Homo sapiens, UniProt P22607, G697C); conditions: compound concentration 10 uM, read-out: Percent Competition
T24 construct: purchased Ambit Biosciences (KINOMEscan)
Source text: as §1

FLT3(K663Q) = molecular target: T25, FLT3(K663Q) (Homo sapiens, UniProt P36888, K663Q); conditions: compound concentration 10 uM, read-out: Percent Competition
T25 construct: purchased Ambit Biosciences (KINOMEscan)
Source text: as §1

IKK-beta = molecular target: T26, IKK-beta (Homo sapiens, UniProt O14920); conditions: compound concentration 10 uM, read-out: Percent Competition
T26 construct: purchased Ambit Biosciences (KINOMEscan)
Source text: as §1

[1] = molecular target: T27, JAK1(JH1domain-catalytic) (Homo sapiens, UniProt P23458); conditions: compound concentration 10 uM
T27 construct: JAK1(JH1domain-catalytic); purchased Ambit Biosciences (KINOMEscan)
Source text: as §1

KIT(V559D,T670I) = molecular target: T28, KIT(V559D,T670I) (Homo sapiens, UniProt P10721, T670I/V559D); conditions: compound concentration 10 uM, read-out: Percent Competition
T28 construct: purchased Ambit Biosciences (KINOMEscan)
Source text: as §1

LYN = molecular target: T29, LYN (Homo sapiens, UniProt P07948); conditions: compound concentration 10 uM, read-out: Percent Competition
T29 construct: purchased Ambit Biosciences (KINOMEscan)
T29 sequence (P07948 whole entry): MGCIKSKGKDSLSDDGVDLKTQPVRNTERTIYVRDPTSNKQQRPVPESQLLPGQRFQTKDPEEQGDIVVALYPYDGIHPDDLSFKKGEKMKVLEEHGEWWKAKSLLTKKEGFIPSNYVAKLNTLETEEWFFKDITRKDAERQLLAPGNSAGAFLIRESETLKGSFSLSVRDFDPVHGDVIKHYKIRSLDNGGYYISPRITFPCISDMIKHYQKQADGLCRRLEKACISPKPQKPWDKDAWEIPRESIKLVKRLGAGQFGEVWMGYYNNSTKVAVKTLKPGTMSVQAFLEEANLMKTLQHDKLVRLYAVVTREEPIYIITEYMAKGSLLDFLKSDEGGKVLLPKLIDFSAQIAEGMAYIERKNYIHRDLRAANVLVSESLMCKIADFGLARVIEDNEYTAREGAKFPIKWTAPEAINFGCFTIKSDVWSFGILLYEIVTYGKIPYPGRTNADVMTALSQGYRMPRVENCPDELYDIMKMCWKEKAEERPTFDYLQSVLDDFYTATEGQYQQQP
Source text: as §1

MAP4K3 = molecular target: T30, MAP4K3 (Homo sapiens, UniProt Q8IVH8); conditions: compound concentration 10 uM
T30 construct: purchased Ambit Biosciences (KINOMEscan)
T30 sequence (Q8IVH8 whole entry): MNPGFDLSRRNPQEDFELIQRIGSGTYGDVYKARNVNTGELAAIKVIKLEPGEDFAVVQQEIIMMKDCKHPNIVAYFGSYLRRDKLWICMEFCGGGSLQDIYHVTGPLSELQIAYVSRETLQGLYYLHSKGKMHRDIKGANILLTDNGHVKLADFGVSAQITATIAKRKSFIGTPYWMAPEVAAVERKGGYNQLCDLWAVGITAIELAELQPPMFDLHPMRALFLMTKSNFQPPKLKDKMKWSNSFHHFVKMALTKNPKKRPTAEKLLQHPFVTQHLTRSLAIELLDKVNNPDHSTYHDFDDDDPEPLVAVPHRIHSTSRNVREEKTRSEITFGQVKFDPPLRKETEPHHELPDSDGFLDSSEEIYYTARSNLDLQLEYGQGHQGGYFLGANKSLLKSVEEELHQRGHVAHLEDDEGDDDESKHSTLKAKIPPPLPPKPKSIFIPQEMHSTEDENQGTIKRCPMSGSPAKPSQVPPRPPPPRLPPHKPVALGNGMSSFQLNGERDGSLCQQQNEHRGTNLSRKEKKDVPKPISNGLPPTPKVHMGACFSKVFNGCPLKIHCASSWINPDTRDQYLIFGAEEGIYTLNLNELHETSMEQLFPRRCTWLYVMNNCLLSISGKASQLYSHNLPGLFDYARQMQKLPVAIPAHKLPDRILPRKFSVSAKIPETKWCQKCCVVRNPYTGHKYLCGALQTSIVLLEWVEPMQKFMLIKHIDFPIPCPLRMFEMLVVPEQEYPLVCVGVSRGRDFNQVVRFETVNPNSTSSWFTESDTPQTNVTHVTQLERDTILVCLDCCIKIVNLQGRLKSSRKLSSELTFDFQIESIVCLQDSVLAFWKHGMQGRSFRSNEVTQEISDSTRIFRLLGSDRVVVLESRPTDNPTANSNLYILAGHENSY
Source text: as §1

MYLK = molecular target: T31, MYLK (Homo sapiens, UniProt Q15746); conditions: compound concentration 10 uM, read-out: Percent Competition
T31 construct: purchased Ambit Biosciences (KINOMEscan)
Source text: as §1

PDGFRA = molecular target: T32, PDGFRA (Homo sapiens, UniProt P16234); conditions: compound concentration 10 uM, read-out: Percent Competition
T32 construct: purchased Ambit Biosciences (KINOMEscan)
Source text: as §1

PIK3C2B = molecular target: T33, PIK3C2B (Homo sapiens, UniProt O00750); conditions: compound concentration 10 uM, read-out: Percent Competition
T33 construct: purchased Ambit Biosciences (KINOMEscan)
Source text: as §1

PIK3CA(E545K) = molecular target: T34, PIK3CA(E545K) (Homo sapiens, UniProt P42336, E545K); conditions: compound concentration 10 uM, read-out: Percent Competition
T34 construct: purchased Ambit Biosciences (KINOMEscan)
Source text: as §1

[2] = molecular target: T35, RPS6KA4(Kin.Dom.2-C-terminal) (Homo sapiens, UniProt O75676); conditions: compound concentration 10 uM, read-out: Percent Competition
T35 construct: RPS6KA4(Kin.Dom.2-C-terminal); purchased Ambit Biosciences (KINOMEscan)
T35 sequence (O75676 372-772 limits assumed): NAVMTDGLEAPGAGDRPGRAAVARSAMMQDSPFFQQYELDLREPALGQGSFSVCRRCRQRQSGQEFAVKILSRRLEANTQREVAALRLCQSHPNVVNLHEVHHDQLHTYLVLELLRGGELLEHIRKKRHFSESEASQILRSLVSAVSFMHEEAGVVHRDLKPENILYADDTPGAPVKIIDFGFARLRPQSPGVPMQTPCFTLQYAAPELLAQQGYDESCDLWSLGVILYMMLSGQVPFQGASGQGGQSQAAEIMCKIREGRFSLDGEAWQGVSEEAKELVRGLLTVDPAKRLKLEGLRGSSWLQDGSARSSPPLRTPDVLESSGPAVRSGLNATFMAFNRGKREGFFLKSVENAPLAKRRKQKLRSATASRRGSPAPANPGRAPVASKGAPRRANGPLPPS
Source text: as §1

[3] = molecular target: T36, RPS6KA6(Kin.Dom.1-N-terminal) (Homo sapiens, UniProt Q9UK32); conditions: compound concentration 10 uM
T36 construct: RPS6KA6(Kin.Dom.1-N-terminal); purchased Ambit Biosciences (KINOMEscan)
Source text: as §1

SIK = molecular target: T37, SIK (Homo sapiens, UniProt P57059); conditions: compound concentration 10 uM
T37 construct: purchased Ambit Biosciences (KINOMEscan)
Source text: as §1

SRPK3 = molecular target: T38, SRPK3 (Homo sapiens, UniProt Q9UPE1); conditions: compound concentration 10 uM, read-out: Percent Competition
T38 construct: purchased Ambit Biosciences (KINOMEscan)
T38 sequence (Q9UPE1 whole entry): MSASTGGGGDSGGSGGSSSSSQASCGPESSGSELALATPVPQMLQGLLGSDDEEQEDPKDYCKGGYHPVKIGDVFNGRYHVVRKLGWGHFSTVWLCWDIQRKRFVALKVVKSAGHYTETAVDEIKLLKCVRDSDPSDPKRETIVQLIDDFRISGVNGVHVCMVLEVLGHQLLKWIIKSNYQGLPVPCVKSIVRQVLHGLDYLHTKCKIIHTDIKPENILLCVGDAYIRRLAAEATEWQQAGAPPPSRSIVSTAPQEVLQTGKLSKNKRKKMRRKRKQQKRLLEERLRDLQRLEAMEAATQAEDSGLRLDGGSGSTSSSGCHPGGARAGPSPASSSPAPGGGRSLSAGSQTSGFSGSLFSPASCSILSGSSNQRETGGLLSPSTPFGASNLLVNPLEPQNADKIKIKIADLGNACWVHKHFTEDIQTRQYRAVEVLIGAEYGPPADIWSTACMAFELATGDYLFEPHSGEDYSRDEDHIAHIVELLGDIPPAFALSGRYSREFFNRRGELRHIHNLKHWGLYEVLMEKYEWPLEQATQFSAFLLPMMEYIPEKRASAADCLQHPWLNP
Source text: as §1

TESK1 = molecular target: T39, TESK1 (Homo sapiens, UniProt Q15569); conditions: compound concentration 10 uM, read-out: Percent Competition
T39 construct: purchased Ambit Biosciences (KINOMEscan)
Source text: as §1

Which results are given for `Fc1ccc(-c2c(-c3ccncc3)[nH]c3nccnc23)cc1` [RO1155697-000-005]?
inhibition at 10 µM (ABL1(F317I)): < 50%; inhibition at 10 µM (ABL1(H396P)): < 50%; inhibition at 10 µM (AKT1): < 50%; inhibition at 10 µM (AMPK-alpha1): < 50%; Percent Competition (ARK5): <50%; inhibition at 10 µM (AURKA): < 50%; inhibition at 10 µM (AURKB): < 50%; inhibition at 10 µM (AXL): < 50%; inhibition at 10 µM (BIKE): < 50%; inhibition at 10 µM (BLK): < 50%; inhibition at 10 µM (BMPR1A): < 50%; Percent Competition (BMPR2): <50%; inhibition at 10 µM (BRK): < 50%; inhibition at 10 µM (BRSK2): < 50%; inhibition at 10 µM (CAMKK1): < 50%; inhibition at 10 µM (CDC2L1): 91%; inhibition at 10 µM (CDK9): < 50%; inhibition at 10 µM (CDKL2): < 50%; inhibition at 10 µM (CLK3): < 50%; inhibition at 10 µM (CSF1R): < 50%; Percent Competition (DCAMKL1): <50%; inhibition at 10 µM (FAK): < 50%; inhibition at 10 µM (FGFR3): < 50%; inhibition at 10 µM (FGFR3(G697C)): < 50%; inhibition at 10 µM (FLT3(K663Q)): < 50%; inhibition at 10 µM (IKK-beta): < 50%; Percent Competition [1]: <50%; inhibition at 10 µM (KIT(V559D,T670I)): < 50%; inhibition at 10 µM (LYN): < 50%; Percent Competition (MAP4K3): <50%; inhibition at 10 µM (MYLK): < 50%; inhibition at 10 µM (PDGFRA): < 50%; inhibition at 10 µM (PIK3C2B): < 50%; inhibition at 10 µM (PIK3CA(E545K)): < 50%; inhibition at 10 µM [2]: < 50%; Percent Competition [3]: <50%; Percent Competition (SIK): <50%; inhibition at 10 µM (SRPK3): < 50%; inhibition at 10 µM (TESK1): < 50%
